According to patent US7893066B2, “Pyridol[2,3-B]pyrazinones for use as stearoyl CoA desaturase inhibitors” (Gilead Palo Alto, Inc., priority 2006, dated 2011):

target: T1, stearoyl-CoA desaturase (SCD) (Rattus norvegicus, UniProt P07308); experiment: SCD assay, rat liver microsomes with [3H]stearoyl CoA (adapted from Talamo and Bloch); type: biochemical; settings: second table, same SCD assay
T1 construct: from tissue; host or cells: liver microsomes of male Sprague Dawley rats, with SCD induced by a carbohydrate-rich diet
T1 sequence (P07308 1-358): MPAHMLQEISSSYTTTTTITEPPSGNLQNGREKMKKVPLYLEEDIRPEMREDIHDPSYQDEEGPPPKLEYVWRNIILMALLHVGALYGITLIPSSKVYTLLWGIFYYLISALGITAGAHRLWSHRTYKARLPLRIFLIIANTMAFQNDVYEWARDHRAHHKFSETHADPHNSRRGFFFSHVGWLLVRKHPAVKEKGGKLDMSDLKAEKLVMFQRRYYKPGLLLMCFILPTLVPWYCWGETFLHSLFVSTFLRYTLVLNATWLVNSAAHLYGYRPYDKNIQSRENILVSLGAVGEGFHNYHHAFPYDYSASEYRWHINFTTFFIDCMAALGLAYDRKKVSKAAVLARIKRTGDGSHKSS
From the text: The identification of compounds of the invention as SCD inhibitors was readily accomplished using the SCD enzyme and microsomal assay procedure described in Talamo and Bloch (1969) Analytical Biochemistry 29:300-304.
The rat liver microsomes were collected according to the procedure described in Ozols (1990) Methods Enzm, 182:225.
Male Spraque Dawley Rats were placed on regimented fasting protocol for one week to stimulate SCD enzymatic activity. 48-hour periods were alternated between feeding and fasting to induce and down-regulate SCD activity with SCD activity being induced via carbohydrate rich diet prior to liver perfusion and collection.
The rats were anesthetized with Isoflurane inhalation anesthetic, the liver perfused with cold phosphate buffered saline (PBS), weighed, and chilled in cold homogenization buffer (250 mM sucrose, 10 mM Tris, 1 mM EDTA, pH 7.6.
The livers were finely minced and placed in homogenization tube. 40 mL of homogenization buffer was added to the homogenization tube and the liver homogenized and centrifuged in a pre-chilled SLA-600 TC at 800G rotor for 10 min at 4° C.
Following centrifugation, the supernatant was collected and the pellet removed and discarded. This supernatant was then centrifuged at 10,000G for 35 minutes. Following centrifugation, the supernatant was collected and the pellet discarded. The supernatant was further centrifuged in a pre-chilled 45-Ti rotor at 130,000 G (41,000 RPM) for 90 minutes at 4° C.
The supernatant was then aspirated off and the collected microsomal pellet washed in 25 mL of Glycerol PBS (1×PBS 7.4, 20% Glycerol) and resuspended in 4-5 volumes of Glycerol PBS.
The protein concentration of the microsomal preparation was determined by BCA assay (Pierce) and the microsomes were aliquoted and stored at −80° C.
Biobeads were ground to a smaller size in a mortar and pestle and filtered through 300 μM mesh and then resuspended in 3.6% TCA.
SCD was determined in the desaturase assay buffer. This assay buffer contained 0.1 M Tris buffer, pH 7.2, 2 mM NADH, 4.8 mM ATP, 0.5 mM CoA, 4.8 mM MgCl2, and 0.1% BSA.
1 μl of each compound of Formula I was added to an assay plate by a low volume (0.5-10 μL) multichannel pipette. A DMSO control was also prepared. The microsomes were quickly thawed and added to assay buffer so that a concentration of 1-0.1 mg/ml was achieved (0.5-0.05 mg/ml assay final). 50 μl of the microsome suspension in assay buffer was then added into each well in the compound assay plate, the plate was covered, and the microsomes preincubated with the compounds for 30-60 minutes on the orbital shaker, 50-75 rpm, at room temperature.
After preincubation, the reaction was initiated by the addition of 50 μl of substrate solution (20 μM Stearoyl CoA, [3H]Stearoyl CoA, 74nCi) to the preincubated microsomes/compound suspensions in MilliQ (Millipore) H2O. The reaction mixtures were then incubated for 45 minutes on the orbital shaker at 50-75 rpm at room temperature.
The reaction was terminated by the addition of 10 μl of 21% trichloroacetic acid (TCA) to the reaction mixture followed incubation on the orbital shaker for 30 minutes at 50-75 rpm at room temperature followed by centrifugation for 5 minutes at 3700 rpm.
50 μl of a 6% Bio-Bead suspension in H2O was added to the reaction mixture and the assay plate was sealed. The Bio-Bead mixture was incubated on the orbital shaker for 1 to 24 hours, 100-150 rpm at room temperature, and then the mixture was centrifuged at 2000g for 5 minutes to pellet the Bio-Beads.
25 μl of the supernatant was harvested from each well and transferred to a detection plate. 100 μl of OptiPhase SuperMix scinitillation cocktail (containing sufficient NaOH to neutralize the TCA) was added and the solutions mixed by vigorous shaking (300-400 rpm) for 5 minutes at room temperature.

Going from “(S)-3-(2-(4-methoxyphenyl)-3-oxo-6-(3-(trifluoromethyl)benzylamino)pyrido[2,3-b]pyrazin-4(3H)-yl)butanamide [compound 39]” to “(±)-2,3-dihydroxy-N-(2-(3-methyl-2-oxo-7-(3-(trifluoromethyl)benzylamino)-quinoxalin-1(2H)-yl)ethyl)-propanamide [compound 59]”, the IC50 falls from 19000 nM to 360 nM (53-fold).

Compared with “N-(2-(3-(4-methoxyphenyl)-7-(3-methylbenzylamino)-2-oxoquinoxalin-1(2H)-yl)ethyl)acetamide [compound 56]”, “N-(2-(3-methyl-2-oxo-7-(3-(trifluoromethyl)benzylamino)quinoxalin-1(2H)-yl)ethyl)thiophene-3-carboxamide [compound 51]” is 6.9-fold lower in IC50: 18 nM for the first, 2.6 nM for the second. The second is the more potent here.

Going from “N-(2-(3-oxo-6-(3-(trifluoromethyl)benzylamino)-2-(4-(trifluoromethyl)phenyl)pyrido[2,3-b]pyrazin-4(3H)-yl)ethyl)acetamide [compound 37]” to “N-(2-(6-(2-chlorobenzylamino)-2-(4-methoxyphenyl)-3-oxopyrido[2,3-b]pyrazin-4(3H)-yl)ethyl)acetamide [compound 1]”, the IC50 rises from 1300 nM to 4100 nM (3.2-fold).

Going from “N-(2-(6-(3,4-dichlorobenzylamino)-2-(4-methoxyphenyl)-3-oxopyrido[2,3-b]pyrazin-4(3H)-yl)ethyl)-2-hydroxyacetamide [compound 34]” to “N-(2-(6-(3-methoxybenzylamino)-2-(4-methoxyphenyl)-3-oxopyrido[2,3-b]pyrazin-4(3H)-yl)ethyl)acetamide [compound 13]”, the IC50 rises from 120 nM to 760 nM (6.3-fold).

First: N-(2-(7-(2-(2-chlorophenoxy)ethylamino)-3-(4-methoxyphenyl)-2-oxoquinoxalin-1(2H)-yl)ethyl)acetamide [compound 55]
Second: benzyl 1-(2-acetamidoethyl)-3-(3,4-dichlorophenyl)-2-oxo-1,2-dihydroquinoxalin-6-ylcarbamate [compound 47]
The IC50 of the first is 9.2-fold lower: 250 nM for the first, 2300 nM for the second. The first is the more potent here.
